Experimental data reported in patent US20190175601A1, “COMPOSITION FOR INHIBITING OR ALLEVIATING ITCHING INCLUDING RIBOFLAVIN” (INDUSTRY-UNIVERSITY COOPERATION FOUNDATION HANYANG …, priority 2016, published 2019).
Each block holds one compound with its values, some of them ahead of it.

Columns and labels:
[1] = system: histamine-induced itching; test: Histamine-induced itching animal behavioral test, preparation for transdermal administration; assay type: in vivo, male C57BL/6 mice
Protocol: An effect of inhibiting or alleviating itching was tested using the preparation for transdermal administration prepared according to Preparation Example 2. For the test, an animal behavioral experiment was carried out in the same manner as in Experimental Example 1.
In particular, 30 minutes before 100 μg/50 μl of histamine was injected, the preparation for transdermal administration was applied on the skin, and then the preparation was removed 5 minutes before histamine was injected.

[2] = system: histamine-induced itching; test: Histamine-induced itching animal behavioral test, preparations for oral administration; assay type: in vivo, male C57BL/6 mice; details: FIG. 1
Protocol: An effect of inhibiting or alleviating itching was tested using the preparations for oral administration prepared according to Preparation Example 1. For the test, an animal behavioral test was performed using the mouse model disclosed in Non-Patent Document 6.
Groups each including 10 male C57BL/6 mice weighing 20 g to 23 g were used in the test. These groups were accommodated under control of a temperature of 23° C. to 25° C. The mice were freely fed food and water. For the itching-induced animal behavioral model test, the mice were orally administered the preparations for oral administration having different concentrations of riboflavin, which were prepared according to Preparation Example 1 (100 mg/kg, 300 mg/kg, or 600 mg/kg). In addition, the mice were treated with the control prepared according to Preparation Example 1.
To induce scratching, histamine, which is known to cause an itching sensation in humans, was used. At this time, histamine was dissolved in sterile physiological saline. 30 minutes after administration of the preparations for oral administration, 50 μl (500 μg/site) of histamine was injected intradermally into the back of the neck of each mouse.
The results were analyzed by calculating the mean and standard deviation, and a statistical difference of mean values was determined using a Student's t-test.

[3] = system: histamine-induced itching; test: Histamine-induced itching animal behavioral test, local intradermal injection co-administered with histamine; assay type: in vivo, male C57BL/6 mice; details: 1 μM/50 μl intradermal, at the same time as histamine 100 μg/site; FIG. 2
Protocol: An effect of inhibiting or alleviating itching was tested using the local intradermal injection prepared according to Preparation Example 1.
The test was carried out in the same manner as in Experimental Example 1, except for the following. For the itching-induced animal behavioral model test, 1 μM/50 μl of the local intradermal injection prepared according to Preparation Example 1 was injected intradermally into the back of the neck of each mouse. In addition, upon administration of the preparation, 50 μl (100 μg/site) of histamine was injected intradermally at the same time.

[4] = system: skin-afferent nerve tissue; test: Histamine-induced peripheral nerve activity in preserved skin-afferent nerve tissue; details: histamine administered to the sole of the foot; FIG. 3
Protocol: Histamine-induced itching is known to occur through peripheral nerve excitation. In the present experimental example, it was examined whether histamine-induced peripheral nerve activity was blocked by riboflavin.
After securing preserved skin-afferent nerve tissue, histamine was administered to the sole of the foot to confirm nerve activity, and such histamine-induced nerve activity was blocked by riboflavin (see FIG. 3).

[5] = system: spinal cord dorsal root ganglion cells; test: Histamine-induced current, membrane voltage clamp method; assay type: cell-based; details: primary cultured mouse dorsal root ganglion cells, FIG. 4
Protocol: In addition, to confirm an effect of riboflavin on blocking histamine-induced peripheral nerve activity, it was examined using a membrane voltage clamp method whether a histamine-induced current was inhibited by riboflavin.
To this end, spinal cord dorsal root ganglion cells of each mouse were isolated and primarily cultured, and then electrophysiological characteristics of the spinal cord dorsal root ganglion cells were recorded using the membrane voltage clamp method.

TRPV1 = molecular target: T1, TRPV1 (Homo sapiens, UniProt Q8NER1); test: Capsaicin current blocking in TRPV1-expressing HEK293 cells; assay type: cell-based; details: TRPV1-expressing HEK 293 cells
T1 construct: expressed in transfected cells; host or cells: HEK 293 cells
Source text: TRPV1 was expressed in HEK 293 cells to carry out a capsaicin current blocking experiment. Under these conditions, riboflavin excluded other channels and a direct effect of riboflavin was examined. The results are illustrated in FIG. 5. FIG. 5 illustrates results of confirming that a capsaicin-induced current was inhibited by riboflavin.

T1 sequence (Q8NER1 whole entry, species assumed): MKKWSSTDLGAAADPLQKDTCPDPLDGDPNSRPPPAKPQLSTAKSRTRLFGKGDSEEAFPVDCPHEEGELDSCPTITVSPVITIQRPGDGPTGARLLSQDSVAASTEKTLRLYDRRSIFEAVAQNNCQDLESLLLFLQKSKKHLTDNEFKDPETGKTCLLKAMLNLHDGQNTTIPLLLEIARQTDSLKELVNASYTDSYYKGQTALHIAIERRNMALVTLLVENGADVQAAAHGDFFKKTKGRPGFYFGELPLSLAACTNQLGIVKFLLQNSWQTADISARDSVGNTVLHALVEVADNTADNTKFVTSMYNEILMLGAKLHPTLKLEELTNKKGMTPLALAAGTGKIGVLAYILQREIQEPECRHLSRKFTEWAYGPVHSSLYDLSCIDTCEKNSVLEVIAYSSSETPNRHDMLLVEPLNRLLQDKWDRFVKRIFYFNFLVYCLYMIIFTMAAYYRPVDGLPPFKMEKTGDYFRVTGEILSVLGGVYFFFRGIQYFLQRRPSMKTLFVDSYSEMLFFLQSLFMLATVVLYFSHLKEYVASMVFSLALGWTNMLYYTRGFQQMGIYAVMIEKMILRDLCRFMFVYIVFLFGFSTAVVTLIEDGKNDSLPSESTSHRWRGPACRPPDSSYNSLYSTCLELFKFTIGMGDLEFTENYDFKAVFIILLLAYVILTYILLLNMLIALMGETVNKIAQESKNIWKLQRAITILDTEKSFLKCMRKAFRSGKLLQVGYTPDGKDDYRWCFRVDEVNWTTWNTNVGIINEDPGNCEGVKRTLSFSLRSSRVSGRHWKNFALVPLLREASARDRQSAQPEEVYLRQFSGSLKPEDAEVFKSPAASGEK

SMILES: Cc1cc2nc3c(=O)[nH]c(=O)nc-3n(C[C@H](O)[C@H](O)[C@H](O)CO)c2cc1N(C)C [roseoflavin, 8-demethyl-8-(dimethylamino)-riboflavin]
histamine-induced itching responses ([1]; 1 mM in Vaseline cream on skin 30 minutes before histamine 100 μg/50 μl, removed 5 minutes before, observed 30 minutes, FIG. 8): itching responses were reduced
itching behavioral responses (number of times) ([1]; 1 mM transdermal preparation, control 142 times, 30 minutes): 60 times

capsaicin-induced current blocking effect at 100 nM (TRPV1; 100 nM): did not effectively block TRPV1
SMILES: Cc1cc2nc3c(=O)[nH]c(=O)nc-3n(C[C@H](O)[C@H](O)[C@H](O)CO)c2cc1C [riboflavin]
dose dependence of effect on inhibiting histamine-induced itching ([2]; oral 100, 300, 600 mg/kg): dose-dependent pattern
histamine-induced itching responses (number of scratches) ([2]; oral 100, 300 or 600 mg/kg, 30 minutes before histamine 500 μg/site intradermal, observed 30 minutes): itching responses were reduced
histamine-induced itching responses (number of scratches) [3]: itching responses were reduced
histamine-induced nerve activity [4]: blocked
histamine-induced inward current [5]: the current is blocked
capsaicin-induced current blocking effect (TRPV1; several concentrations, FIG. 5): statistically significant effect of blocking channels in a concentration-dependent manner
